US20120183950A1, “TISSUE ANALYSIS” (priority 2009, published 2012)

System: influenza virus H3N2X31
Assay type: cell-based
Details: human bronchial and parenchymal lung tissue explants, X31 virus, NP-1 antibody, flow cytometry; FIG. 8

| SMILES | efficacy as inhibitor of viral infection in the explant model (primary output: percentage of cells infected) |
| --- | --- |
| Cl.N [ammonium chloride] | demonstrated the efficacy |
| CCOC(=O)C1=C[C@@H](OC(CC)CC)[C@H](NC(C)=O)[C@@H](N)C1 [oseltamivir] | demonstrated the efficacy |
